Assay results as given in patent US12472177B2, “Bicyclic compounds and methods for their use in treating Pitt Hopkins syndrome” (NEUREN PHARMACEUTICALS LIMITED, priority 2019, dated 2025).

Experiments:
[1] = test system: Tcf4^+/− mice; experiment: Fear conditioning (time freezing); assay type: in vivo, mouse; design: key to Fear Conditioning: Tukey’s Multiple Comparisons Test Summary: **** = p < 0.00001; ns = not significant
Protocol: (§1) In vivo behavioral studies were conducted in Tcf4^+/− mutant and wildtype littermate control (WT) mice by Gen.DDI (Santiago, Chile). Littermate controls consist of the genotypes Tcf4^+/+. All Tcf4 mutant mice used were heterozygous for the Tcf4 mutation because homozygous mutations of Tcf4 result in embryonic to postnatal day 1 lethality. Ten mice per treatment group, 14 weeks of age, were used for behavioral experiments. Experiments were conducted in line with the requirements of the UK Animals (Scientific Procedures) Act, 1986. The mice were housed in plastic cages (35×30×12 cm), 5 in each and habituated to the animal facilities for at least a week before commencing the test. The room temperature (21° C.±2° C.), relative humidity (55%±5%), a 12-hour light-dark cycle (lights on 7 AM to 7 PM), and air exchange were automatically controlled. The animals had free access to commercial food pellets and water. Testing was performed during the light phase of the circadian cycle, with the order of testing being determined by the principle of conducting the most stressful tests last. Assays were designed to reproduce and expand on the original behavioral characterization of Tcf4^+/− mice. Tcf4^+/− and WT control mice were treated for 6 weeks prior to testing and tested 30 minutes following a dose of cG-2-AllylP, as described in Table 2 below.
Fear conditioning to either an event or a context represents a form of associative learning that has been well studied in many species. In mice, fear is often shown as stopping movement, also known as freezing behavior. Freezing is adaptive for prey species because predators often locate moving prey. The dependent measure used in contextual (delay) fear conditioning is a freezing response that takes place following pairing of an unconditioned stimulus (foot shock), with a conditioned stimulus (CS; e.g., an audible tone), a particular context and/or such a cue. If in a conditioning context one administers a foot shock that is paired with a tone, there will be learning not only to the tone, but also to the context.
Contextual fear conditioning is a basic conditioning procedure. It involves taking an animal and placing it in a novel environment, providing an aversive stimulus, and then removing it. […] Freezing is a response to fear, which has been defined as “absence of movement except for respiration.” This freezing behavior may last from seconds to minutes depending on the strength of the aversive stimulus, the number of presentations, and the degree of learning achieved by the subject.
Animals with the Tcf4^+/− mutation show less freezing behavior than wild type mice. This maladaptive behavior can have serious consequences. Therefore, to determine if NNZ-2591 (cG-2-AllylP) can restore normal fear conditioning in Tcf4^+/− mice, we carried out a series of studies.
The percent of time spent in freezing over a 5-minute test period is shown on the vertical axis of FIG. 4. Animals and their treatments are shown on the horizontal axis.

[2] = test system: Tcf4^+/− mice; experiment: Nest building (test of daily living); assay type: in vivo, mouse
Protocol: as §1
Nest building is an activity needed for mice to raise their offspring and is an indicator of social adaptation and activities of daily living. Tcf4^+/− mice build nests of substantially lower quality than wild type mice. Therefore, to determine if NNZ-2591 (cG-2-AllylP) might restore the quality of nest building, we carried out a series of studies.

[3] = Tcf4^+/− + cG-2-AllylP (100 mg/kg) vs Tcf4^+/− + cG-2-AllylP (200 mg/kg)
[4] = Tcf4^+/− + cG-2-AllylP (100 mg/kg) vs WT + cG-2-AllylP (200 mg/kg)
[5] = Tcf4^+/− + vehicle vs Tcf4^+/− + cG-2-AllylP (100 mg/kg)
[6] = Tcf4^+/− + vehicle vs Tcf4^+/− + cG-2-AllylP (200 mg/kg)
[7] = Tcf4^+/− + vehicle vs WT + cG-2-AllylP (100 mg/kg)
[8] = Tcf4^+/− + vehicle vs WT + cG-2-AllylP (200 mg/kg)
[9] = WT + cG-2-AllylP (100 mg/kg) vs Tcf4^+/− + cG-2-AllylP (100 mg/kg)
[10] = WT + cG-2-AllylP (100 mg/kg) vs Tcf4^+/− + cG-2-AllylP (200 mg/kg)
[11] = WT + cG-2-AllylP (100 mg/kg) vs WT + cG-2-AllylP (200 mg/kg)
[12] = WT + cG-2-AllylP (200 mg/kg) vs Tcf4^+/− + cG-2-AllylP (200 mg/kg)
[13] = WT + vehicle vs Tcf4^+/− + cG-2-AllylP (100 mg/kg)
[14] = WT + vehicle vs Tcf4^+/− + cG-2-AllylP (200 mg/kg)
[15] = WT + vehicle vs WT + cG-2-AllylP (100 mg/kg)
[16] = WT + vehicle vs WT + cG-2-AllylP (200 mg/kg)
[17] = WT mice, 100 mg/kg oral BID 6 weeks
[18] = WT mice, 200 mg/kg oral BID 6 weeks

Compound: C=CC[C@]12CCCN1C(=O)CNC2=O [cG-2-AllylP, (8aS)-Allyl-hexahydropyrrolo[1,2-a]pyrazine-1,4-dione]
- Fear Conditioning: Tukey’s Multiple Comparisons Test Summary [1, 3]: *** (*** = p < 0.001)
- Fear Conditioning: Tukey’s Multiple Comparisons Test Summary [1, 4]: **** (**** = p < 0.0001)
- Fear Conditioning: Tukey’s Multiple Comparisons Test Summary [1, 5]: **** (**** = p < 0.0001)
- Fear Conditioning: Tukey’s Multiple Comparisons Test Summary [1, 6]: **** (**** = p < 0.0001)
- Fear Conditioning: Tukey’s Multiple Comparisons Test Summary [1, 7]: **** (**** = p < 0.0001)
- Fear Conditioning: Tukey’s Multiple Comparisons Test Summary [1, 8]: **** (**** = p < 0.0001)
- Time spent in freezing behavior over a 5-minute test period ([1]; Tcf4^+/− mice, 100 mg/kg oral BID 6 weeks, 100 mg/kg): improved but remained significantly different to Wild Type
- Behavior Normalized to WildType Levels: Fear Con ([1]; Tcf4^+/− mice, 200 mg/kg): ✓
- Fear Conditioning: Tukey’s Multiple Comparisons Test Summary [1, 9]: ns
- Fear Conditioning: Tukey’s Multiple Comparisons Test Summary [1, 10]: nx
- Fear Conditioning: Tukey’s Multiple Comparisons Test Summary [1, 11]: ns
- Fear Conditioning: Tukey’s Multiple Comparisons Test Summary [1, 12]: ns
- Fear Conditioning: Tukey’s Multiple Comparisons Test Summary [1, 13]: * (* = p < 0.05)
- Fear Conditioning: Tukey’s Multiple Comparisons Test Summary [1, 14]: ns
- Fear Conditioning: Tukey’s Multiple Comparisons Test Summary [1, 15]: ns
- Fear Conditioning: Tukey’s Multiple Comparisons Test Summary [1, 16]: ns
- Time spent in freezing behavior over a 5-minute test period [1, 17]: about the same amount of time in freezing behavior as did vehicle-treated WT mice
- Time spent in freezing behavior over a 5-minute test period [1, 18]: about the same amount of time in freezing behavior as did vehicle-treated WT mice
- Test of Daily Living: Tukey’s Multiple Comparison Test Summary [2, 3]: ns
- Test of Daily Living: Tukey’s Multiple Comparison Test Summary [2, 4]: ns
- Test of Daily Living: Tukey’s Multiple Comparison Test Summary [2, 5]: **** (**** = p < 0.0001)
- Test of Daily Living: Tukey’s Multiple Comparison Test Summary [2, 6]: **** (**** = p < 0.0001)
- Test of Daily Living: Tukey’s Multiple Comparison Test Summary [2, 7]: **** (**** = p < 0.0001)
- Test of Daily Living: Tukey’s Multiple Comparison Test Summary [2, 8]: **** (**** = p < 0.0001)
- Behavior Normalized to WildType Levels: Nesting ([2]; Tcf4^+/− mice, 100 mg/kg): ✓
- Nest building quality (grade of 1-5) ([2]; Tcf4^+/− mice, 100 mg/kg oral BID 6 weeks): normalized the quality of nests to levels nearly identical to WT mice
- Behavior Normalized to WildType Levels: Nesting ([2]; Tcf4^+/− mice, 200 mg/kg): ✓
- Nest building quality (grade of 1-5) ([2]; Tcf4^+/− mice, 200 mg/kg oral BID 6 weeks): normalized the quality of nests to levels nearly identical to WT mice
- Test of Daily Living: Tukey’s Multiple Comparison Test Summary [2, 9]: ns
- Test of Daily Living: Tukey’s Multiple Comparison Test Summary [2, 10]: ns
- Test of Daily Living: Tukey’s Multiple Comparison Test Summary [2, 11]: ns
- Test of Daily Living: Tukey’s Multiple Comparison Test Summary [2, 12]: ns
- Test of Daily Living: Tukey’s Multiple Comparison Test Summary [2, 13]: ns
- Test of Daily Living: Tukey’s Multiple Comparison Test Summary [2, 14]: ns
- Test of Daily Living: Tukey’s Multiple Comparison Test Summary [2, 15]: ns
- Test of Daily Living: Tukey’s Multiple Comparison Test Summary [2, 16]: ns
- Nest building quality (grade of 1-5) [2, 17]: nearly identical to those of vehicle-treated WT mice
- Nest building quality (grade of 1-5) [2, 18]: nearly identical to those of vehicle-treated WT mice
